Laboratory results published in US20260373165A1, “PHARMACEUTICAL COMBINATIONS AND COMPOSITIONS, AND METHODS OF USE THEREOF” (SHENZHEN HIGHTIDE BIOPHARMACEUTICAL LTD., priority 2022, published 2026).

How the values were obtained:
Assay type in all cases: in vivo, mouse (C57BL/6J male, 60% HFD DIO)
[1] = Example 1: body weight and body weight change rate, combined administration of HTD1801 and empagliflozin in DIO obesity model; conditions: semaglutide 10 nmol/kg s.c. Q3D
Excerpt: (§1) After 5-week-old C57BL/6J male mice were acclimatized for 1 week, the weight of each mouse was weighed, and the mice were randomly divided into a control group and a model group by taking the weight as a main index, where 12 mice in the control group were fed with common feed (CD), and the mice in the remaining model group were fed with 60% high-fat feed (60% HFD) for 10-12 weeks to construct a DIO obesity model, with the average body weight being not less than 40 g. The mice fed with 60% HFD were grabbed and acclimatized with a solvent for 3 days, where the acclimatization with a solvent was performed by oral gavage of 0.5% CMC-Na, twice daily.
(§2) The food intake, the body weight, the body fat ratio, and the insulin level of the mice were respectively measured, followed by fasting blood glucose level, and the mice were randomly grouped according to Table 3 by taking the body weight as an index, and the remaining ungrouped mice were euthanized. After grouping, each group of mice was administered according to Table 3, the day of administration was defined as DO, and the administration volume of each drug was determined based on the results obtained by the calculation of 5 μL/g× mouse body weight (g).
(§3) For the combined administration group, the total administration volume was the sum of the administration volumes of two single drugs, and the administration sequence and the administration time were kept consistent at each administration. The mice were continuously fed with high-fat feed during the administration period until the administration was finished. During administration, 2 food intakes were measured per week (difference in feed weights at an interval of 24 h was measured); each group of mice was weighed once daily; postprandial blood glucose levels were measured weekly; blood was collected from the tail tip on day 6 and day 20, respectively, so as to measure fasting blood glucose levels once (blood was collected after fasting from 8:00 am to […]); on day 25 of administration, the body fat ratio and the lean mass of each group of mice were measured by MRI (the measurement period was kept consistent with that before grouping); after 4 weeks of administration intervention (day 28), each group of mice was fasted for 6 h and subjected to OGTT (0 min, 15 min, 30 min, 60 min, 90 min, 120 min) to detect their blood glucose levels, and meanwhile subjected to blood sampling via submaxillary vein (0 min, 15 min, 30 min, about 30 μL of blood sampled each time), and then the blood plasma was separated for detecting the insulin level by ELISA, where the separated blood plasma was more than 10 μL; the next day (D29) at the end of administration was set as the test endpoint, and the mice were fasted for 6 h in the morning and subjected to fasting blood glucose level measurement; subsequently, the mice were euthanized with CO2, blood was collected from the heart of each mouse for analysis, and each group of mice was dissected; the liver and subcutaneous, epididymal and mesenteric fat was collected, photographed and weighed, respectively.

[2] = Example 1: body fat mass by MRI after 25 days
Excerpt: as §1, §2, §3
After 25 days of administration, the body weight, the body fat mass and the body fat ratio of each animal in groups G1 to G6 were measured and averaged for each group, and the results are shown in Table 5 below, FIG. 4 and FIG. 5.

[3] = Example 1: liver, abdominal and subcutaneous fat weight after 28 days; conditions: mean, HTD1801 200 mpk, empagliflozin 10 mpk in last 2 weeks (300/15 mpk before)
Excerpt: as §1, §2, §3
After 28 days of administration, the mice were euthanized with CO2 the next day, and the mice of groups G1 to G5 were dissected, and liver and abdominal fat (including epididymis and mesentery), and subcutaneous fat were collected, photographed and weighed, respectively, and the results are shown in Table 6 below, FIG. 6, FIG. 7, and FIG. 8.

[4] = Example 1: fasting blood glucose level; conditions: semaglutide 10 nmol/kg s.c. Q3D
Excerpt: as §1, §2
For the combined administration group, the total administration volume was the sum of the administration volumes of two single drugs, and the administration sequence and the administration time were kept consistent at each administration. The mice were continuously fed with high-fat feed during the administration period until the administration was finished. […]
After 20 days of administration, fasting blood glucose level results were measured for each group of animals and are shown in Table 8 below and FIG. 11.

[5] = Example 1: oral glucose tolerance test (OGTT), blood glucose; conditions: HTD1801 200 mpk, empagliflozin 10 mpk (reduced after week 2), semaglutide 10 nmol/kg s.c. Q3D
Excerpt: as §1, §2, §3

[6] = day 0 (baseline), HTD1801 300 mpk, empagliflozin 15 mpk gavage QD
[7] = day 1, HTD1801 300 mpk, empagliflozin 15 mpk gavage QD
[8] = day 2, HTD1801 300 mpk, empagliflozin 15 mpk gavage QD
[9] = day 3, HTD1801 300 mpk, empagliflozin 15 mpk gavage QD
[10] = day 4, HTD1801 300 mpk, empagliflozin 15 mpk gavage QD
[11] = day 5, HTD1801 300 mpk, empagliflozin 15 mpk gavage QD
[12] = day 6, HTD1801 300 mpk, empagliflozin 15 mpk gavage QD
[13] = day 7, HTD1801 300 mpk, empagliflozin 15 mpk gavage QD
[14] = day 8, HTD1801 300 mpk, empagliflozin 15 mpk gavage QD
[15] = day 9, HTD1801 300 mpk, empagliflozin 15 mpk gavage QD
[16] = day 10, HTD1801 300 mpk, empagliflozin 15 mpk gavage QD
[17] = day 11, HTD1801 300 mpk, empagliflozin 15 mpk gavage QD
[18] = day 12, HTD1801 300 mpk, empagliflozin 15 mpk gavage QD
[19] = day 13, HTD1801 300 mpk, empagliflozin 15 mpk gavage QD
[20] = day 14, HTD1801 300 mpk, empagliflozin 15 mpk gavage QD
[21] = day 15, HTD1801 200 mpk, empagliflozin 10 mpk (reduced after week 2) gavage QD
[22] = day 16, HTD1801 200 mpk, empagliflozin 10 mpk (reduced after week 2) gavage QD
[23] = day 17, HTD1801 200 mpk, empagliflozin 10 mpk (reduced after week 2) gavage QD
[24] = day 18, HTD1801 200 mpk, empagliflozin 10 mpk (reduced after week 2) gavage QD
[25] = day 19, HTD1801 200 mpk, empagliflozin 10 mpk (reduced after week 2) gavage QD
[26] = day 20, HTD1801 200 mpk, empagliflozin 10 mpk (reduced after week 2) gavage QD
[27] = day 21, HTD1801 200 mpk, empagliflozin 10 mpk (reduced after week 2) gavage QD
[28] = day 22, HTD1801 200 mpk, empagliflozin 10 mpk (reduced after week 2) gavage QD
[29] = day 23, HTD1801 200 mpk, empagliflozin 10 mpk (reduced after week 2) gavage QD
[30] = day 24, HTD1801 200 mpk, empagliflozin 10 mpk (reduced after week 2) gavage QD
[31] = day 25, HTD1801 200 mpk, empagliflozin 10 mpk (reduced after week 2) gavage QD
[32] = day 26, HTD1801 200 mpk, empagliflozin 10 mpk (reduced after week 2) gavage QD
[33] = day 27, HTD1801 200 mpk, empagliflozin 10 mpk (reduced after week 2) gavage QD
[34] = day 28, HTD1801 200 mpk, empagliflozin 10 mpk (reduced after week 2) gavage QD
[35] = mean, after 25 days of administration, HTD1801 200 mpk, empagliflozin 10 mpk in last 2 weeks (300/15 mpk before), semaglutide 10 nmol/kg s.c. Q3D

COc1ccc2cc3[n+](cc2c1OC)CCc1cc2c(cc1-3)OCO2.C[C@H](CCC(=O)[O-])[C@H]1CC[C@H]2[C@@H]3[C@@H](O)C[C@@H]4C[C@H](O)CC[C@]4(C)[C@H]3CC[C@]12C [HTD1801, berberine ursodeoxycholate]
body weight change (in words) ([1]; after 14 days, reduced dose: HTD1801 200 mpk, empagliflozin 10 mpk): slight rebound | Body weight (mean) [1, 6]: 43.6 g | Body weight change rate [1, 6]: 0.0% | Body weight (mean) [1, 7]: 42.9 g | Body weight change rate [1, 7]: −1.6% | Body weight (mean) [1, 8]: 43.1 g | Body weight change rate [1, 8]: −1.2% | Body weight (mean) [1, 9]: 42.3 g | Body weight change rate [1, 9]: −3.0% | Body weight (mean) [1, 10]: 42.3 g | Body weight change rate [1, 10]: −2.9% | Body weight (mean) [1, 11]: 42.5 g | Body weight change rate [1, 11]: −2.6% | Body weight (mean) [1, 12]: 42.0 g | Body weight change rate [1, 12]: −3.8% | Body weight (mean) [1, 13]: 41.5 g | Body weight change rate [1, 13]: −4.9% | Body weight (mean) [1, 14]: 40.8 g | Body weight change rate [1, 14]: −6.2% | Body weight (mean) [1, 15]: 40.7 g | Body weight change rate [1, 15]: −6.6% | Body weight (mean) [1, 16]: 40.7 g | Body weight change rate [1, 16]: −6.5% | Body weight (mean) [1, 17]: 40.6 g | Body weight change rate [1, 17]: −6.8% | Body weight (mean) [1, 18]: 40.8 g | Body weight change rate [1, 18]: −6.3% | Body weight (mean) [1, 19]: 40.4 g | Body weight change rate [1, 19]: −7.1% | Body weight (mean) [1, 20]: 39.7 g | Body weight change rate [1, 20]: −8.7% | Body weight (mean) [1, 21]: 39.5 g | Body weight change rate [1, 21]: −9.0% | Body weight (mean) [1, 22]: 39.6 g | Body weight change rate [1, 22]: −8.8% | Body weight (mean) [1, 23]: 39.4 g | Body weight change rate [1, 23]: −9.3% | Body weight (mean) [1, 24]: 38.9 g | Body weight change rate [1, 24]: −10.3% | Body weight (mean) [1, 25]: 38.9 g | Body weight change rate [1, 25]: −10.3% | Body weight (mean) [1, 26]: 39.2 g | Body weight change rate [1, 26]: −8.4% | Body weight (mean) [1, 27]: 39.5 g | Body weight change rate [1, 27]: −7.8% | Body weight (mean) [1, 28]: 39.7 g | Body weight change rate [1, 28]: −7.2% | Body weight (mean) [1, 29]: 40.2 g | Body weight change rate [1, 29]: −6.0% | Body weight (mean) [1, 30]: 40.5 g | Body weight change rate [1, 30]: −5.4% | Body weight (mean) [1, 31]: 40.7 g | Body weight change rate [1, 31]: −4.8% | Body weight (mean) [1, 32]: 40.1 g | Body weight change rate [1, 32]: −6.5% | Body weight (mean) [1, 33]: 40.2 g | Body weight change rate [1, 33]: −6.2% | Body weight (mean) [1, 34]: 39.5 g | Body weight change rate [1, 34]: −7.9% | body weight change / weight loss effect (in words) ([1]; within 14 days, HTD1801 300 mpk, empagliflozin 15 mpk gavage QD): continuously decreased over time | body fat mass and body fat ratio (in words) ([2]; after 25 days, relative to control group G2): decreased | Body weight ([2]; mean, after 25 days of administration (Table 5), HTD1801 200 mpk, empagliflozin 10 mpk in last 2 weeks (300/15 mpk before), semaglutide 10 nmol/kg s.c. Q3D): 40.10 g | Body fat ratio [2, 35]: 40.12% | Fat (body fat mass) [2, 35]: 16.23 g | Epididymal fat weight [3]: 2.31 g | Liver weight [3]: 0.98 g | Mesenteric fat weight [3]: 0.78 g | Subcutaneous fat weight [3]: 2.32 g | Mean fasting blood glucose level [4, 12]: 7.9 mmol/L | Mean fasting blood glucose level ([4]; day 20, HTD1801 200 mpk, empagliflozin 10 mpk (reduced after week 2)): 8.4 mmol/L | OGTT blood glucose level ([5]; day 28, 0 min): 10.65 mmol/L | OGTT blood glucose level ([5]; day 28, 15 min): 19.88 mmol/L | OGTT blood glucose level ([5]; day 28, 30 min): 20.04 mmol/L | OGTT blood glucose level ([5]; day 28, 60 min): 23.48 mmol/L | OGTT blood glucose level ([5]; day 28, 90 min): 19.88 mmol/L | OGTT blood glucose level ([5]; day 28, 120 min (head printed "12 0min")): 22.22 mmol/L
